Laboratory results: PMC2409895, “Antitumour efficacy of VEGFR2 tyrosine kinase inhibitor correlates with expression of VEGF and its receptor VEGFR2 in tumour models” (British Journal of Cancer, 2004)

Columns and labels:
HCT116 xenograft = test: HCT116 tumour xenograft growth inhibition; type: in vivo, nude mice; details: for % Inhibition of tumour growth: vs vehicle
Experimental: (§1) Tumours were initiated by injection of tumour cell suspension subcutaneously in 8–12-week-old nude mice, except PC3 tumours that were grown in SCID mice (Charles River Laboratories, Wilmington, MA, USA). When tumours reached a volume of 100–200 mm^3, mice were randomised into groups of eight prior to treatment with VEGFR kinase inhibitors. Animals were treated with kinase inhibitors (10, 30, or 100 mg kg^−1) or vehicle (0.5% hydroxypropyl methyl cellulose, 0.1% Tween 80 in sterile water), administered once or twice daily by oral gavage for 2–3 weeks (till the mean tumour volume reached 1000–1500 mm^3). Tumour volume was measured twice weekly by calipers, using the formula (length × width × width × 0.5), where length was the longest diameter across the tumour, and width was the corresponding perpendicular. Tumour growth inhibition was calculated by change in the slopes of tumour growth for control and treated tumours. The oral dose of GW654652 producing 50% inhibition of tumour growth (ED50, mg kg^−1) was estimated by a programme that performed a weighted nonlinear regression analysis of data using the equation: y=Vmax(1−(x/(K+x))), where K is equal to ED50. All animal studies were carried out with the appropriate institutional ethical committee approval and they met the standards of both the US federal regulations and those required by the UKCCCR guidelines ([Workman et al, 1998]).

Pharmacokinetics in mice = type: in vivo, mouse; details: for free Cmax: mice, based on 99% protein binding and total plasma concentration
human VEGFR2 kinase = target: T1, human VEGFR2 kinase (Homo sapiens, UniProt P35968); test: VEGFR2 kinase assay (HTRF); type: biochemical; details: Table 1
T1 construct: GST-fusion protein encoding the catalytic carboxyl-terminus of human VEGFR kinase 1, 2, or 3; made in house; host or cells: baculovirus expression system
T1 sequence (P35968 834-1162 limits assumed): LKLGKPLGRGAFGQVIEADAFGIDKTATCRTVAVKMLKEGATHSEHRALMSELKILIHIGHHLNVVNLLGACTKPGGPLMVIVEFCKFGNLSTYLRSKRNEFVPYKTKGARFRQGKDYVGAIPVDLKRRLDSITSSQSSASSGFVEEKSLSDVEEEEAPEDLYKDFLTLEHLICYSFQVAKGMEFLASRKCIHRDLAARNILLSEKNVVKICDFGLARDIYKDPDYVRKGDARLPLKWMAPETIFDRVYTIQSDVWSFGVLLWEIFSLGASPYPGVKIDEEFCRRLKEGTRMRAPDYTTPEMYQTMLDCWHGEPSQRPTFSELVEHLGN
Experimental: (§2) Vascular endothelial growth factor receptor kinase assays were carried out in a homogenous time-resolved fluorescence (HTRF) format in 384-well microtitre plates using a purified, baculovirus-expressed GST-fusion protein encoding the catalytic carboxyl-terminus of human VEGFR kinase 1, 2, or 3. Reactions were initiated by the addition of 10 μl of activated VEGFR kinase (1 nM, 0.1 M HEPES pH 7.5, 0.1 mg ml^−1 BSA, and 0.30 mM DTT) to 10 μl of substrate (360 nM biotin-aminohexyl-EEEEYFELVAKKKK-NH2 peptide, 75 μM ATP, 10 mM MgCl2) and 1 μl of small molecule inhibitor at various concentrations. Plates were incubated at room temperature for 60 min, and the reaction was stopped by the addition of 20 μl 100 mM EDTA. Homogenous time-resolved fluorescence reagents (20 μl 15 nM streptavidin-linked allophycocyanin, 1 nM europium-labelled anti-phosphotyrosine antibody in 0.1 M HEPES, pH 7.5, 0.1 mg ml^−1 BSA) were added and plates were incubated for a minimum of 10 min. The fluorescence at 665 nm was measured with a Victor plate reader (Wallac, Shelton, CT, USA) using a time delay of 50 μs. […] Data were fitted with a curve described by: y=((Vmax × x)/(K+x)+Y2), where Vmax is the upper asymptote, Y2 is the Y intercept, and K is the IC50.

Eph-B4 = target: T2, Eph-B4 (Homo sapiens, UniProt P54760); test: Eph-B4 kinase assay (scintillation proximity); type: biochemical
T2 construct: Each kinase assay was conducted using purified recombinant catalytic domain of the enzyme
T2 sequence (P54760 615-899 limits assumed): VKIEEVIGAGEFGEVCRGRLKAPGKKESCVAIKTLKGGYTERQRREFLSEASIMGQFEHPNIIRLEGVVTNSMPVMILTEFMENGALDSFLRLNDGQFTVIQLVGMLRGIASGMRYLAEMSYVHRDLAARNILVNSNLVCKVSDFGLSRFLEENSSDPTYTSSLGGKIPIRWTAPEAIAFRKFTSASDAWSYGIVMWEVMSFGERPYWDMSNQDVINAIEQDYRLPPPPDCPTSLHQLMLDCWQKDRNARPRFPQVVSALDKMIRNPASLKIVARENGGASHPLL
Experimental: (§3) Inhibition of several other kinases by small molecules was also determined. Each kinase assay was conducted using purified recombinant catalytic domain of the enzyme. The concentration of ATP and kinase-specific biotinylated peptide in each assay was below the apparent Km of the respective substrate. Inhibition of c-Fms, SRC, and Tie-2 was evaluated by an HTRF format and the inhibition of CDK2, CDK4, EGFR, ErbB2, and Eph-B4 was detected by scintillation proximity assay.

HT29 xenograft = test: HT29 tumour xenograft growth inhibition; type: in vivo, nude mice; details: for % Inhibition of tumour growth: vs vehicle
Experimental: as §1

CDK2 = target: T3, CDK2 (Homo sapiens, UniProt P24941); test: CDK2 kinase assay (scintillation proximity); type: biochemical
T3 construct: Each kinase assay was conducted using purified recombinant catalytic domain of the enzyme
Experimental: as §3

SW620 xenograft = test: SW620 tumour xenograft growth inhibition; type: in vivo, nude mice; details: for % Inhibition of tumour growth: vs vehicle
Experimental: as §1

Pharmacokinetics in dog = type: in vivo
CDK4 = target: T4, CDK4 (Homo sapiens, UniProt P11802); test: CDK4 kinase assay (scintillation proximity); type: biochemical
T4 construct: Each kinase assay was conducted using purified recombinant catalytic domain of the enzyme
T4 sequence (P11802 6-295 limits assumed, species assumed): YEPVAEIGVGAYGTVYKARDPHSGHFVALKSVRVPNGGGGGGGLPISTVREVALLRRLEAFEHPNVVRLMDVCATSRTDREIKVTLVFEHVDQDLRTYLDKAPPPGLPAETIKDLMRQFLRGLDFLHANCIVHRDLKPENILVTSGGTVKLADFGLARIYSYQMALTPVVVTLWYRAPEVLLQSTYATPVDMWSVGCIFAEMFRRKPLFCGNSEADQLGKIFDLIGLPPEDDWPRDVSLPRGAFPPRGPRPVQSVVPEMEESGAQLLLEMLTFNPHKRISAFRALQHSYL
T4 sequence (P24385 whole entry partner, species assumed, the tested form may be a part): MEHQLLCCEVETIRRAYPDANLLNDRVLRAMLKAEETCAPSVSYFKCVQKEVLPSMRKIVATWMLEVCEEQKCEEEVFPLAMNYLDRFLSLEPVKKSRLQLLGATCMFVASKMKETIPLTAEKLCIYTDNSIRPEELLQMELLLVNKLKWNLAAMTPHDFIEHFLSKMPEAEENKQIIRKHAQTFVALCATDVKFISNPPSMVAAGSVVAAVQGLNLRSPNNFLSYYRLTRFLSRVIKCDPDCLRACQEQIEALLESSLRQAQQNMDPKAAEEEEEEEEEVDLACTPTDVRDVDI
Experimental: as §3

A375P xenograft = test: A375P tumour xenograft growth inhibition; type: in vivo, nude mice; details: for % Inhibition of tumour growth: vs vehicle
Experimental: as §1

c-Fms = target: T5, c-Fms (Homo sapiens, UniProt P07333); test: c-Fms kinase assay (HTRF); type: biochemical
T5 construct: Each kinase assay was conducted using purified recombinant catalytic domain of the enzyme
T5 sequence (P07333 582-910 limits assumed): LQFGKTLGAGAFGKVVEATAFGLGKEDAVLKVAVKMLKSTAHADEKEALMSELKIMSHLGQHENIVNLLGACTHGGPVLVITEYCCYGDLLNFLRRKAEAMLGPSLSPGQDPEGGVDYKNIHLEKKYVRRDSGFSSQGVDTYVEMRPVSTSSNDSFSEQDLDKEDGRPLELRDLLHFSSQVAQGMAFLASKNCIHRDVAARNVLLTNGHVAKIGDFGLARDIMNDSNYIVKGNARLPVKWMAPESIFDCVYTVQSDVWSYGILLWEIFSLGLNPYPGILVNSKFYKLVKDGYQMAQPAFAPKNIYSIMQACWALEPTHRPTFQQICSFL
Experimental: as §3

[1] = tested on: HUVEC grown in presence of VEGF; test: VEGF-induced HUVEC proliferation (BrdU incorporation); type: cell-based; details: Homo sapiens, VEGF 10 ng ml^−1, 72 h
Experimental: (§4) Effect of kinase inhibitors on cell proliferation was measured using BrdU incorporation method using commercially available kits (Roche Diagnostics, Indianapolis, IN, USA). Briefly, HUVEC were seeded in a medium containing 5% FBS in type 1 Collagen-coated 96-well plates and incubated overnight at 37°C, 5% CO2. The medium was aspirated from the cells, and various concentrations of kinase inhibitors in serum-free medium were added to each well. After 30 min, VEGF (10 ng ml^−1) or bFGF (0.3 ng ml^−1) was added to the wells. Cells were incubated for an additional 72 h and BrdU (10 μM) was added during the last 18–24 h of incubation. Data were fitted with a curve described by the equation, y=Vmax × (1−(x/(K+x))), where K is equal to the IC50.

human VEGFR kinase 1 = target: T6, human VEGFR kinase 1 (Homo sapiens, UniProt P17948); test: VEGFR1 kinase assay (HTRF); type: biochemical
T6 construct: GST-fusion protein encoding the catalytic carboxyl-terminus of human VEGFR kinase 1, 2, or 3; made in house; host or cells: baculovirus expression system
T6 sequence (P17948 827-1158 limits assumed): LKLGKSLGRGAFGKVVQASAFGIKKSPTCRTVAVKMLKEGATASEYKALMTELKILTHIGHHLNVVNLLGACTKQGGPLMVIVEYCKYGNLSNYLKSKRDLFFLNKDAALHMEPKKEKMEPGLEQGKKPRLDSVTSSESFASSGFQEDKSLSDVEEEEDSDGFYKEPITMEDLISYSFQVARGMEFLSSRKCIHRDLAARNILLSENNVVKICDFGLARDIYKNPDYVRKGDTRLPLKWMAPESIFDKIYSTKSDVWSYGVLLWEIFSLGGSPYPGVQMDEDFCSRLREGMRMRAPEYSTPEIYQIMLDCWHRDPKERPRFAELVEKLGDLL
Experimental: as §2

PC3 xenograft = test: PC3 tumour xenograft growth inhibition; type: in vivo, SCID mice; details: for % Inhibition of tumour growth: vs vehicle
Experimental: as §1

Protein binding = type: in vitro ADME; details: mouse, plasma; used to calculate free Cmax in mice
ErbB2 = target: T7, ErbB2 (Homo sapiens, UniProt P04626); test: ErbB2 kinase assay (scintillation proximity); type: biochemical
T7 construct: Each kinase assay was conducted using purified recombinant catalytic domain of the enzyme
T7 sequence (P04626 720-987 limits assumed, species assumed): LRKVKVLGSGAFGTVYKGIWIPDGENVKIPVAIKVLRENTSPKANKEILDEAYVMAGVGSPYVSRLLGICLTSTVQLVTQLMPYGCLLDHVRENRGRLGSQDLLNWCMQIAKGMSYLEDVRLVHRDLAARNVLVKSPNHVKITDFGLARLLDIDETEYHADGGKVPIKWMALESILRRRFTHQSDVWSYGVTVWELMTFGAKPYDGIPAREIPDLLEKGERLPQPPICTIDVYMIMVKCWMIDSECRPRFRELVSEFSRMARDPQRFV
Experimental: as §3

human VEGFR kinase 3 = target: T8, human VEGFR kinase 3 (Homo sapiens, UniProt P35916); test: VEGFR3 kinase assay (HTRF); type: biochemical
T8 construct: GST-fusion protein encoding the catalytic carboxyl-terminus of human VEGFR kinase 1, 2, or 3; made in house; host or cells: baculovirus expression system
T8 sequence (P35916 845-1173 limits assumed): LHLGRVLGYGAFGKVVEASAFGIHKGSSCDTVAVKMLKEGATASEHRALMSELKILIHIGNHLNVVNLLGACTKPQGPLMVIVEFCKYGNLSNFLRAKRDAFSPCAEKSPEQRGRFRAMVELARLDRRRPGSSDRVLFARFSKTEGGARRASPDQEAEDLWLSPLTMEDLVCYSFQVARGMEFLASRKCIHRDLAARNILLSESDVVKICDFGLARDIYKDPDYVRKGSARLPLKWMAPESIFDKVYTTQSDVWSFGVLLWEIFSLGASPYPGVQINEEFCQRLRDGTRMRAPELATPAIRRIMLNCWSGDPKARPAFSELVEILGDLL
Experimental: as §2

Tie2 = target: T9, Tie2 (Homo sapiens, UniProt Q02763); test: Tie-2 kinase assay (HTRF); type: biochemical
T9 construct: Each kinase assay was conducted using purified recombinant catalytic domain of the enzyme
T9 sequence (Q02763 824-1096 limits assumed, species assumed): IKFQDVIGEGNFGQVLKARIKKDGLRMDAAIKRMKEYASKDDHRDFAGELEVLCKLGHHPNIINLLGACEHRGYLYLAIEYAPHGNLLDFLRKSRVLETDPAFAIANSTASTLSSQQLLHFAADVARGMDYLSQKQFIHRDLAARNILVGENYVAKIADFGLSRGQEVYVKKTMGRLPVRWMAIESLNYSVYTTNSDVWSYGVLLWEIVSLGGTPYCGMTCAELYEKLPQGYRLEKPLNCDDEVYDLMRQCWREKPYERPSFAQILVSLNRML
Experimental: as §3

HN5 xenograft = test: HN5 tumour xenograft growth inhibition; type: in vivo, nude mice; details: for % Inhibition of tumour growth: vs vehicle
Experimental: as §1

[2] = tested on: HUVEC grown in presence of bFGF; test: bFGF-induced HUVEC proliferation (BrdU incorporation); type: cell-based; details: Homo sapiens, bFGF 0.3 ng ml^−1, 72 h
Experimental: as §4

EGFR = target: T10, EGFR (Homo sapiens, UniProt P00533); test: EGFR kinase assay (scintillation proximity); type: biochemical
T10 construct: Each kinase assay was conducted using purified recombinant catalytic domain of the enzyme
T10 sequence (P00533 712-979 limits assumed, species assumed): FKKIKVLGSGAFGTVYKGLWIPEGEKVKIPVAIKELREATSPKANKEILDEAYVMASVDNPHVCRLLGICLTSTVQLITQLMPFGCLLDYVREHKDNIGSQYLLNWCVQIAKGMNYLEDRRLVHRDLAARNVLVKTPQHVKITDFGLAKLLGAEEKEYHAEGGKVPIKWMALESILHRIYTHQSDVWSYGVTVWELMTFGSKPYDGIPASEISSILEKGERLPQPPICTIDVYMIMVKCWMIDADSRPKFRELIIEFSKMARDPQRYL
Experimental: as §3

SRC = target: T11, SRC (Homo sapiens, UniProt P12931); test: SRC kinase assay (HTRF); type: biochemical
T11 construct: Each kinase assay was conducted using purified recombinant catalytic domain of the enzyme
T11 sequence (P12931 270-523 limits assumed, species assumed): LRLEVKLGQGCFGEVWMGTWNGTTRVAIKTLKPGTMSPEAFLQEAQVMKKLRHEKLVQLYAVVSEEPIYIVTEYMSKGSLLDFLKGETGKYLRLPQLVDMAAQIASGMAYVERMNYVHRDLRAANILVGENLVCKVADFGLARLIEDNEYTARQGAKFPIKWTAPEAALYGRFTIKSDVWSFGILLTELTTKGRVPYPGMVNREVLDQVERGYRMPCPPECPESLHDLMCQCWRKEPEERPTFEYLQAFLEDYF
Experimental: as §3

[3] = ratio of IC50 of the kinase to IC50 vs VEGFR-2

## CCS(=O)(=O)c1ccc(OC)c(Nc2nccc(N(C)c3ccc4c(C)n[nH]c4c3)n2)c1 [GW654652, N^2-[5-(ethylsulphonyl)-2-methoxyphenyl]-N^4-methyl-N^4-(3-methyl-1H-indazol-6-yl)pyrimidine-2,4-diamine]
HCT116 xenograft; HCT116, 10 mg kg^−1 oral once daily
  % Inhibition of tumour growth: 18%
HCT116 xenograft; HCT116, 30 mg kg^−1 oral once daily
  % Inhibition of tumour growth: 59%
HCT116 xenograft; HCT116, 100 mg kg^−1 oral once daily
  % Inhibition of tumour growth: 71%
HCT116 xenograft; HCT116, oral dose producing 50% inhibition of tumour growth
  ED50: 21 ± 8 mg/kg/day
Pharmacokinetics in mice; oral 10 mg kg^−1
  free Cmax: 0.06 µM
Pharmacokinetics in mice; oral 30 mg kg^−1
  free Cmax: 0.23 µM
Pharmacokinetics in mice; oral 100 mg kg^−1
  free Cmax: 1.38 µM
Pharmacokinetics in mice; mouse
  pharmacokinetic profile: good pharmacokinetic profile
Human VEGFR2 kinase
  IC50: 2.3 nM
Eph-B4; mean±s.e.
  IC50: 460 ± 30 nM
Eph-B4; [3]
  Fold selectivity vs VEGFR-2, Eph-B4: 204
HT29 xenograft; HT29, 10 mg kg^−1 oral once daily
  % Inhibition of tumour growth: 5%
HT29 xenograft; HT29, 30 mg kg^−1 oral once daily
  % Inhibition of tumour growth: 69%
HT29 xenograft; HT29, 100 mg kg^−1 oral once daily
  % Inhibition of tumour growth: 98%
HT29 xenograft; HT29, oral dose producing 50% inhibition of tumour growth
  ED50: 20 ± 8 mg/kg/day
CDK2
  IC50: > 20 µM
CDK2; [3]
  Fold selectivity vs VEGFR-2, CDK2: >8800
SW620 xenograft; SW620, 10 mg kg^−1 oral once daily
  % Inhibition of tumour growth: 12%
SW620 xenograft; SW620, 30 mg kg^−1 oral once daily
  % Inhibition of tumour growth: 44%
SW620 xenograft; SW620, 100 mg kg^−1 oral once daily
  % Inhibition of tumour growth: 74%
SW620 xenograft; SW620, oral dose producing 50% inhibition of tumour growth
  ED50: 46 ± 11 mg/kg/day
Pharmacokinetics in dog
  pharmacokinetic profile: good pharmacokinetic profile
CDK4
  IC50: > 20 µM
CDK4; [3]
  Fold selectivity vs VEGFR-2, CDK4: >8800
A375P xenograft; 30 mg kg^−1 oral once daily
  % Inhibition of tumour growth: 14%
A375P xenograft; 100 mg kg^−1 oral once daily
  % Inhibition of tumour growth: 49%
A375P xenograft; oral dose producing 50% inhibition of tumour growth
  ED50: 114 ± 54 mg/kg/day
c-Fms; mean±s.e.
  IC50: 530 ± 330 nM
c-Fms; [3]
  Fold selectivity vs VEGFR-2, c-Fms: 237
[1]
  IC50: 110 nM
Human VEGFR kinase 1; mean±s.e.
  IC50: 12 ± 2.6 nM
Human VEGFR kinase 1; [3]
  Fold selectivity vs VEGFR-2, VEGFR-1: 5.3
PC3 xenograft; PC3, 30 mg kg^−1 oral once daily
  % Inhibition of tumour growth: 21%
PC3 xenograft; PC3, 100 mg kg^−1 oral once daily
  % Inhibition of tumour growth: 48%
PC3 xenograft; PC3, oral dose producing 50% inhibition of tumour growth
  ED50: 108 ± 50 mg/kg/day
Protein binding
  fraction unbound: 0.01
ErbB2; mean±s.e.
  IC50: 11.5 ± 2.74 µM
ErbB2; [3]
  Fold selectivity vs VEGFR-2, ErbB2: 5125
Human VEGFR kinase 3; mean±s.e.
  IC50: 2.5 ± 0.5 nM
Human VEGFR kinase 3; [3]
  Fold selectivity vs VEGFR-2, VEGFR-3: 1.1
Tie2; mean±s.e.
  IC50: 320 ± 40 nM
Tie2; [3]
  Fold selectivity vs VEGFR-2, Tie2: 144
HN5 xenograft; HN5, 10 mg kg^−1 oral once daily
  % Inhibition of tumour growth: 24%
HN5 xenograft; HN5, 30 mg kg^−1 oral once daily
  % Inhibition of tumour growth: 46%
HN5 xenograft; HN5, 100 mg kg^−1 oral once daily
  % Inhibition of tumour growth: 83%
HN5 xenograft; HN5, oral dose producing 50% inhibition of tumour growth
  ED50: 28 ± 10 mg/kg/day
[2]
  IC50: 1980 nM
EGFR; mean±s.e.
  IC50: 1360 ± 420 nM
EGFR; [3]
  Fold selectivity vs VEGFR-2, EGFR: 605
SRC; mean±s.e.
  IC50: 350 ± 240 nM
SRC; [3]
  Fold selectivity vs VEGFR-2, SRC: 156
